Measured values taken from US20220372014A1, “NEUROPROTECTIVE COMPOUNDS AND METHODS OF USE THEREOF” (The Johns Hopkins University, priority 2019, published 2022).

How the values were obtained:
[1] = tested on: HeLa cells or neuronal cells; test: Cell death assay of Example 3 (MNNG, alamarBlue; protection against parthanatos, Table 4); assay type: cell-based; conditions: 1 μM test compound; for (%) inhibition of cell death: MNNG-induced cell death, alamarBlue
Experimental: Cell death assay: 200 μl of cells (HeLa cells or neuronal cells) culture (1×10^4 cells/well) were plated into the wells of a sterile 96-well cell culture plate. The cells were incubated for 18 hours at 37° C. The medium was removed and changed with 100 μl/well of 1 μM test compound. Incubate for 1 hours at 37° C. Ten μl of 500 μM MNNG (N-Methyl-N′-nitro-N-nitrosoguanidine) was added to each well. The medium was aspirated well and incubated for 15 min at 37° C. The cells were washed with the fresh medium. The medium was changed with 1 μM of test compound and incubated for 18 hours at 37° C. 10 μl/well of alamarBlue reagent was added directly to the well and incubated for 1 to 4 hours at 37° C. Fluorescence was measured using a fluorescence excitation wavelength of 560 nm and emission at 590 nm. The percentage of cell death was determined as the ratio of live to dead cells compared with the percentage of cell death in control wells to account for cell death attributed to mechanical stimulation of the cultures.

MIF = biological target: T1, MIF (Homo sapiens, UniProt P14174); test: Nuclease assay of Example 3 (MIF inhibitory activity, Table 4); assay type: biochemical; set-up: (%) inhibition of MIF nuclease activity: concentration or dose not given beside the values; conditions: for (%) inhibition of MIF nuclease activity: nuclease assay of Example 3
T1 sequence (P14174 1-115): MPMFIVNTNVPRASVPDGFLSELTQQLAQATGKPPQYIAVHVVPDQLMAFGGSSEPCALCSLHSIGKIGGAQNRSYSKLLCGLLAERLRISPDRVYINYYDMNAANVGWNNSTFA
Experimental: A rapafucin library was synthesized as described in WO2017/136708 and Guo et al. (2018) Nat. Chem. 11:254-63. The hybrid macrocyclic library consisted of 45,000 compounds in pools of 15 individual compounds. The library compounds were screened for MIF inhibitory activity using a nuclease assay as detailed in FIG. 1 and below.
Nuclease assay: Human genomic DNA (200 ng/reaction, Promega), pcDNA (200 ng/reaction) or PS^30 and its related and non-related substrates (1 μM) was incubated with wild type MIF or its variants at a final concentration of 0.25-8 μM as indicated in 10 mM Tris-HCl buffer (pH 7.0) containing 10 mM MgCl2 and 1 mM DTT or specific buffer as indicated, for 1 h (with pcDNA and small DNA substrates) or 4 h (with human genomic DNA) at 37° C. The reaction was terminated with loading buffer containing 10 mM EDTA and incubation on ice. The human genomic DNA samples were immediately separated on a 1.2% pulse field certified agarose in 0.5×TBE buffer with initial switch time of 1.5 s and a final switch time of 3.5 s for 12 h at 6 V/cm. pcDNA samples were determined by 1% agarose gel. Small DNA substrates were separated on 15% or 25% TBE-urea polyacrylamide (PAGE) gel or 20% TBE PAGE gel. Then gel was stained with 0.5 μg/ml Ethidium Bromide (EtBr) followed by electrophoretic transfer to nylon membrane. Then, Biotin-labeled DNA is further detected by chemiluminescence using Chemiluminescent Nucleic Acid Detection Module (Thermo Scientific).
Structure-activity relationship (SAR) analysis was then conducted on the compounds identified as having MIF inhibitory activity. Compounds having the structure of Formula (I) were then synthesized as shown in Example 1 and tested for MIF inhibitory activity using the nuclease assay described herein and neuronal protection via a cell death assay as detailed below.

Row | (%) inhibition of MIF nuclease activity (MIF) [%] | MIF nuclease activity (MIF) | Compound | (%) inhibition of cell death [1] [%] | protection against parthanatos (cell death) [1]
1 | 11.2 |  | COc1ccc(CC[C@H]2OC(=O)[C@@H]3CCCCN3C(=O)C(=O)C(C)(C)COC(=O)C=CCCN(C)C(=O)[C@H](C(C)C)NC(=O)[C@H](COC(C)(C)C)N(C)C(=O)[C@@H](CC(C)C)NC(=O)CN(C)C(=O)COc3cccc2c3)cc1OC [compound 14] | 41.6 | 
2 | 13.4 |  | COc1ccc(CC[C@H]2OC(=O)[C@@H]3CCCCN3C(=O)C(=O)C(C)(C)COC(=O)C=CCCN(C)C(=O)[C@@H]3CCCN3C(=O)[C@H](COC(C)(C)C)N(C)C(=O)[C@H](C)NC(=O)[C@H](C)N(C)C(=O)COc3cccc2c3)cc1OC [compound 100] | 26.1 | 
3 | 16.5 |  | COc1ccc(CC[C@H]2OC(=O)[C@@H]3CCCCN3C(=O)C(=O)C(C)(C)COC(=O)C=CCCN(C)C(=O)[C@@H](Cc3ccccc3)NC(=O)[C@H](COC(C)(C)C)N(C)C(=O)[C@@H](CC(C)C)NC(=O)CN(C)C(=O)COc3cccc2c3)cc1OC [compound 9] | 57.4 | 
4 | 9.4 |  | COc1ccc(CC[C@H]2OC(=O)[C@@H]3CCCCN3C(=O)C(=O)C(C)(C)COC(=O)C=CCCN(C)C(=O)[C@@H]3CCCN3C(=O)[C@H](COC(C)(C)C)N(C)C(=O)C(c3ccccc3)N(C)C(=O)[C@H](C)NC(=O)COc3cccc2c3)cc1OC (some centres unmarked) [compound 137] | 44.5 | 
5 | 59.4 |  | COc1ccc(CC[C@H]2OC(=O)[C@@H]3CCCCN3C(=O)C(=O)C(C)(C)COC(=O)C=CCCN(C)C(=O)[C@H](c3ccccc3)NC(=O)[C@H](COC(C)(C)C)N(C)C(=O)C(c3ccccc3)NC(=O)[C@H](C)N(C)C(=O)COc3cccc2c3)cc1OC (some centres unmarked) [compound 60] | 55.4 | 
6 | 22.7 |  | COc1ccc(CC[C@H]2OC(=O)[C@@H]3CCCCN3C(=O)C(=O)C(C)(C)COC(=O)C=CCCN(C)C(=O)[C@@H]3CCCN3C(=O)[C@H](C(C)C)N(C)C(=O)[C@@H](Cc3ccccc3)NC(=O)[C@H](CC(C)C)N(C)C(=O)CCC(=O)Nc3cccc2c3)cc1OC [compound 86] | 53.0 | 
7 | 13.6 |  | COc1ccc(CC[C@H]2OC(=O)[C@@H]3CCCCN3C(=O)C(=O)C(C)(C)COC(=O)C=CCCN(C)C(=O)[C@H](Cc3ccc(F)cc3)NC(=O)[C@H](COC(C)(C)C)N(C)C(=O)C(c3ccccc3)NC(=O)[C@H](C)N(C)C(=O)COc3cccc2c3)cc1OC (some centres unmarked) [compound 55] | 59.9 | 
8 | 10.7 |  | COc1ccc(CC[C@H]2OC(=O)[C@@H]3CCCCN3C(=O)C(=O)C(C)(C)COC(=O)C=CCCN(C)C(=O)[C@@H]3CCCN3C(=O)[C@H](COC(C)(C)C)N(C)C(=O)C(c3ccccc3)NC(=O)C(c3ccccc3)N(C)C(=O)COc3cccc2c3)cc1OC (some centres unmarked) [compound 144] | 51.3 | 
9 | 26.8 |  | COc1cc(CC[C@H]2OC(=O)[C@@H]3CCCCN3C(=O)C(=O)C(C)(C)COC(=O)C=CCCN(C)C(=O)[C@@H]3CCCN3C(=O)[C@H](COC(C)(C)C)N(C)C(=O)C(c3ccccc3)NC(=O)[C@H](C)N(C)C(=O)COc3cccc2c3)c(OC)c(OC)c1 (some centres unmarked) [compound 113] | 66.1 | 
10 | 13.1 |  | COc1ccc(CC[C@H]2OC(=O)[C@@H]3CCCCN3C(=O)C(=O)C(C)(C)COC(=O)C=CCCN(C)C(=O)[C@H](C)NC(=O)[C@H](Cc3ccccc3)N(C)C(=O)[C@@H](C)NC(=O)CN(C)C(=O)COc3cccc2c3)cc1OC [compound 62] | 53.7 | 
11 | 20.9 |  | COc1cc(F)c(CCC2OC(=O)[C@@H]3CCCCN3C(=O)C(=O)C(C)(C)COC(=O)C=CCCN(C)C(=O)[C@@H]3CCCN3C(=O)[C@H](COC(C)(C)C)N(C)C(=O)C(c3ccccc3)NC(=O)[C@H](C)N(C)C(=O)COc3cccc2c3)cc1OC (some centres unmarked) [compound 110] | 59.3 | 
12 | −5.1 | do not inhibit MIF nuclease activity | COc1ccc(OC)c(OC)c1CC[C@H]1OC(=O)[C@@H]2CCCCN2C(=O)C(=O)C(C)(C)COC(=O)C=CCCN(C)C(=O)[C@@H]2CCCN2C(=O)[C@H](COC(C)(C)C)N(C)C(=O)C(c2ccccc2)NC(=O)[C@H](C)N(C)C(=O)COc2cccc1c2 (some centres unmarked) [compound 123] | 82.4 | protect against parthanatos
13 | −2.7 |  | COc1ccc(CC[C@H]2OC(=O)[C@@H]3CCCCN3C(=O)C(=O)C(C)(C)COC(=O)C=CCCN(C)C(=O)[C@@H]3CCCN3C(=O)[C@H](COC(C)(C)C)N(C)C(=O)C(c3ccccc3)NC(=O)[C@H](C)N(C)C(=O)COc3cccc2c3)c(OC)c1OC (some centres unmarked) [compound 124] | 55.9 | 
14 | 30.8 |  | COc1ccc(CC[C@H]2OC(=O)[C@@H]3CCCCN3C(=O)C(=O)C(C)(C)COC(=O)C=CCCN(C)C(=O)[C@H](CC(C)C)NC(=O)[C@H](COC(C)(C)C)N(C)C(=O)[C@@H](CC(C)C)NC(=O)CN(C)C(=O)COc3cccc2c3)cc1OC [compound 6] | 46.5 | 
15 | −5.1 |  | COc1ccc(CC[C@H]2OC(=O)[C@@H]3CCCCN3C(=O)C(=O)C(C)(C)COC(=O)C=CCCN(C)C(=O)[C@@H]3CCCN3C(=O)[C@H](COC(C)(C)C)N(C)C(=O)C(c3ccccc3)NC(=O)[C@H](C)N(C)C(=O)COc3cccc2c3)c(F)c1OC (some centres unmarked) [compound 117] | 51.8 | 
16 | 6.7 |  | COc1ccc(CC[C@H]2OC(=O)[C@@H]3CCCCN3C(=O)C(=O)C(C)(C)COC(=O)C=CCCN(C)C(=O)[C@@H]3CCCN3C(=O)[C@H](COC(C)(C)C)N(C)C(=O)C(c3ccccc3)NC(=O)[C@H](Cc3ccccc3)N(C)C(=O)COc3cccc2c3)cc1OC (some centres unmarked) [compound 145] | 46.6 | 
17 | 6.7 |  | COc1ccc(CC[C@H]2OC(=O)[C@@H]3CCCCN3C(=O)C(=O)C(C)(C)COC(=O)C=CCCN(C)C(=O)[C@@H]3CCCN3C(=O)[C@H](COC(C)(C)C)N(C)C(=O)C(c3ccccc3)NC(=O)[C@H](C)N(C)C(=O)COc3cncc2c3)cc1OC (some centres unmarked) [compound 126] | 46.8 | 
18 | 42.2 |  | COCC[C@@H]1NC(=O)[C@H](COC(C)(C)C)N(C)C(=O)[C@H](Cc2ccc3ccccc3c2)NC(=O)[C@H](C)N(C)C(=O)COc2cccc(c2)[C@@H](CCc2ccc(OC)c(OC)c2)OC(=O)[C@@H]2CCCCN2C(=O)C(=O)C(C)(C)COC(=O)C=CCCN(C)C1=O [compound 20] | 60.6 | 
19 | 6.7 |  | CCC[C@@H]1NC(=O)[C@H](C(C)C)N(C)C(=O)[C@@H](Cc2ccccc2)NC(=O)[C@H](CC(C)C)N(C)C(=O)CCC(=O)Nc2cccc(c2)[C@@H](CCc2ccc(OC)c(OC)c2)OC(=O)[C@@H]2CCCCN2C(=O)C(=O)C(C)(C)COC(=O)C=CCCN(C)C1=O [compound 79] | 43.4 | 
20 | 29.5 |  | C=CC(=O)OCC(C)(C)C(=O)C(=O)N1CCCC[C@H]1C(=O)O[C@H](CCc1ccc(OC)c(OC)c1)c1cncc(OCC(=O)N(C)[C@@H](C)C(=O)NC(C(=O)N(C)[C@@H](COC(C)(C)C)C(=O)N2CCC[C@H]2C(=O)N(C)CC/C=C\CCO)c2ccccc2)c1 (some centres unmarked) [compound 129] | 43.0 | 

Row | Compound | (%) inhibition of MIF nuclease activity (MIF) [%] | MIF nuclease activity (MIF) | (%) inhibition of cell death [1] [%] | protection against parthanatos (cell death) [1]
21 | COc1ccc(CC[C@H]2OC(=O)[C@@H]3CCCCN3C(=O)C(=O)C(C)(C)COC(=O)C=CCCN(C)C(=O)CNC(=O)[C@H](COC(C)(C)C)N(C)C(=O)C(c3ccccc3)NC(=O)[C@H](C)N(C)C(=O)COc3cccc2c3)cc1OC (some centres unmarked) [compound 46] | 21.7 |  | 52.5 | 
